Experimental data from US20150299188A1, “HETEROCYCLIC COMPOUND” (priority 2012, published 2015).

Tested on: FLAP (5-lipoxygenase activating protein)
Experiment: In vitro binding test: displacement of [3H]-7-chloro-3-(5-((3-fluoropyridin-2-yl)methoxy)-2-methylphenyl)-3,4-dihydroquinazolin-2(1H)-one from Sf9 microsome fractions
Design: species or system human and mouse
Details: Sf9 microsome fractions expressing FLAP; 100% = radioligand binding with 10 μM sodium 3-(3-(tert-butylsulfanyl)-1-(4-chlorobenzyl)-5-isopropyl-1H-indol-2-yl)-2,2-dimethylpropanoate, 0% = DMSO; test compound concentration not given
Description: As an assay buffer, 100 mM Tris-HCl, pH 7.5, 140 mM NaCl, 2 mM EDTA, 0.5 mM dithiothreitol, 5% glycerol, 0.05% Tween20 was used. Sf9 microsome fractions expressing human and mouse FLAPs were dispensed by 50 μL to a 96-well plate at 2 μg/mL. Furthermore, a test compound (25 μL) diluted 4-fold of the final concentration with the assay buffer was added and mixed therewith, and the mixture was incubated at room temperature for 10 min. Furthermore, 120 nM [^3H]-7-chloro-3-(5-((3-fluoropyridin-2-yl)methoxy)-2-methylphenyl)-3,4-dihydroquinazolin-2(1H)-one was added by 25 μL, and mixed therewith, and the mixture was incubated at room temperature for 60 min. Thereafter, the cells were transferred to a 96-well GF/B Unifilter plate with a FilterMate cell harvester, and washed 3 times with a wash buffer (100 mM Tris-HCl pH 7.5, 0.05% Tween20, 200 μL) cooled to 4° C. The GF/B Unifilter plate was dried at 37° C., Microscint 0 was added and measured by TopCount NXT (PerkinElmer). As for the inhibitory activity, the inhibitory rate was calculated wherein the [^3H]-7-chloro-3-(5-((3-fluoropyridin-2-yl)methoxy)-2-methylphenyl)-3,4-dihydroquinazolin-2(1H)-one binding amount in the presence of 10 μM sodium 3-(3-(tert-butylsulfanyl)-1-(4-chlorobenzyl)-5-isopropyl-1H-indol-2-yl)-2,2-dimethylpropanoate was 100%, and the [^3H]-7-chloro-3-(5-((3-fluoropyridin-2-yl)methoxy)-2-methylphenyl)-3,4-dihydroquinazolin-2(1H)-one binding amount in the presence of DMSO was 0%.

inhibitory rate (%)	SMILES
101	Cc1cc2c(cc1N1Cc3c(cncc3C3CC3)NC1=O)OC(c1ncccc1F)CC2 (stereo not drawn) [Example 26, 5-cyclopropyl-3-(2-(3-fluoropyridin-2-yl)-6-methyl-3,4-dihydro-2H-chromen-7-yl)-3,4-dihydropyrido[3,4-d]pyrimidin-2(1H)-one]
82	CCc1nccc2c1CN(c1cc3c(cc1C)CCC(c1ncccc1F)O3)C(=O)N2 (stereo not drawn) [Example 27, 5-ethyl-3-(2-(3-fluoropyridin-2-yl)-6-methyl-3,4-dihydro-2H-chromen-7-yl)-3,4-dihydropyrido[4,3-d]pyrimidin-2(1H)-one]
98	O=C1Nc2ccnc(Cl)c2CN1c1ccc2c(c1)OC(c1ncccc1F)CC2 (stereo not drawn) [Example 28, 5-chloro-3-(2-(3-fluoropyridin-2-yl)-3,4-dihydro-2H-chromen-7-yl)-3,4-dihydropyrido[4,3-d]pyrimidin-2(1H)-one]
99	Cc1cc2c(cc1N1Cc3cnccc3NC1=O)OC(c1ncccc1F)CC2 (stereo not drawn) [Example 29, 3-(2-(3-fluoropyridin-2-yl)-6-methyl-3,4-dihydro-2H-chromen-7-yl)-3,4-dihydropyrido[4,3-d]pyrimidin-2(1H)-one]
105	CCOC(=O)c1nccc2c1CN(c1cc3c(cc1C)CCC(c1ncccc1F)O3)C(=O)N2 (stereo not drawn) [Example 30, ethyl 3-(2-(3-fluoropyridin-2-yl)-6-methyl-3,4-dihydro-2H-chromen-7-yl)-2-oxo-1,2,3,4-tetrahydropyrido[4,3-d]pyrimidine-5-carboxylate]
101	Cc1cc2c(cc1N1Cc3c(ccnc3C(=O)NC3CC3)NC1=O)OC(c1ncccc1F)CC2 (stereo not drawn) [Example 32, N-cyclopropyl-3-(2-(3-fluoropyridin-2-yl)-6-methyl-3,4-dihydro-2H-chromen-7-yl)-2-oxo-1,2,3,4-tetrahydropyrido[4,3-d]pyrimidine-5-carboxamide]
106	Cc1cc2c(cc1N1Cc3c(ccnc3C(C)(C)O)NC1=O)OC(c1ncccc1F)CC2 (stereo not drawn) [Example 33, 3-(2-(3-fluoropyridin-2-yl)-6-methyl-3,4-dihydro-2H-chromen-7-yl)-5-(2-hydroxypropan-2-yl)-3,4-dihydropyrido[4,3-d]pyrimidin-2(1H)-one]
111	CC(=O)c1nccc2c1CN(c1cc3c(cc1C)CCC(c1ncccc1F)O3)C(=O)N2 (stereo not drawn) [Example 34, 5-acetyl-3-(2-(3-fluoropyridin-2-yl)-6-methyl-3,4-dihydro-2H-chromen-7-yl)-3,4-dihydropyrido[4,3-d]pyrimidin-2(1H)-one]
93	O=C1Nc2ccnc(Cl)c2CN1c1cc2c(cc1C(F)(F)F)CCC(c1ncccc1F)O2 (stereo not drawn) [Example 35, 5-chloro-3-(2-(3-fluoropyridin-2-yl)-6-(trifluoromethyl)-3,4-dihydro-2H-chromen-7-yl)-3,4-dihydropyrido[4,3-d]pyrimidin-2(1H)-one]
115	Cc1cc2c(cc1N1Cc3c(Cl)ccnc3NC1=O)OC(c1ncccc1F)CC2 (stereo not drawn) [Example 36, 5-chloro-3-(2-(3-fluoropyridin-2-yl)-6-methyl-3,4-dihydro-2H-chromen-7-yl)-3,4-dihydropyrido[2,3-d]pyrimidin-2(1H)-one]
107	Cc1cc2c(cc1N1Cc3c(Cl)ncnc3NC1=O)OC(c1ncccc1F)CC2 (stereo not drawn) [Example 37, 5-chloro-3-(2-(3-fluoropyridin-2-yl)-6-methyl-3,4-dihydro-2H-chromen-7-yl)-3,4-dihydropyrimido[4,5-d]pyrimidin-2(1H)-one]
104	Cc1cc2c(cc1N1Cc3cn(CC(F)(F)F)c(=O)cc3NC1=O)OC(c1ncccc1F)CC2 (stereo not drawn) [Example 38, 3-(2-(3-fluoropyridin-2-yl)-6-methyl-3,4-dihydro-2H-chromen-7-yl)-6-(2,2,2-trifluoroethyl)-4,6-dihydropyrido[4,3-d]pyrimidine-2,7(1H,3H)-dione]
